In US9937152B2, “Derivative of styrene-maleic acid copolymer” (priority 2013, dated 2018):

How the values were obtained:
colon cancer (C26) = type: in vivo, Balb mice
Procedure: SMA-THP and pirarubicin (THP) were administered intravenously to mice at the respective dose shown in Table 2 at Day 10 from the inoculation of cancer in mice, and the antitumor effect was evaluated at Day 50. Subsequently, 5×10^5 colon cancer (C26) cells were inoculated in the back in Balb mice and the model animals with tumor size of 5 to 6 mm at about Day 7 to 9 were treated.

in vivo = settings: mouse
[1] = dose 3 mg/kg (MTD amount) i.v. at Day 10, evaluated at Day 50

With `COc1cccc2c1C(=O)c1c(O)c3c(c(O)c1C2=O)C[C@@](O)(C(=O)CO)C[C@@H]3O[C@H]1C[C@H](N)[C@H](O[C@@H]2CCCCO2)[C@H](C)O1` [THP, pirarubicin] the “Number of Metastatic Cancerous Nodes/Mouse: (1~5) (+), mice/group” value (colon cancer (C26); [1]) was 2/5, the “Number of Metastatic Cancerous Nodes/Mouse: (>6) (++), mice/group” value (colon cancer (C26); [1]) was 3/5 and the “Number of Metastatic Cancerous Nodes/Mouse: No Metastasis (−), mice/group” value (colon cancer (C26); [1]) was 0/5. The “effect on the metastatic cancers” value (colon cancer (C26); maximum tolerated dose of 3 mg/kg) was “almost ineffective”, the MTD (in vivo; Balb, iv) was 3 mg/kg and the LD50 (in vivo) was 14.4 mg/kg.
